According to patent US20170217914A1, “Novel Triarylethylene Compounds and Methods Using Same” (The Penn State Research Foundation, priority 2014, published 2017):
Like-named read-outs stand apart in the source and are kept apart here.

Tests used:
[1] = test system: MCF-7 (ER-positive) human breast cancer cell line; assay: MTT cell viability assay, MCF-7 cells; conditions: for IC50: Homo sapiens; for cytotoxic activity: 72 h, versus Ospemifene and Tamoxifen; for anticancer activity in initial screening: 0.5-25 μM, 48 h (FIG. 3)
Protocol: (§2) An MTT solution was added to each well and incubated for 3 h at 37° C. After 3 h, DMSO was added and the optical density was measured at 570 nm using a 96-well multiscanner (Dynex Technologies, MRX Revelation; Chantilly, Va., USA). Backgrounds were subtracted at 630 nm. IC50 values were calculated by non-linear regression analysis using Prism software.
(§3) The effects of novel triarylethylene derivatives on the cell viability were determined by the MTT uptake method using previously described methods (Kaur et al., 2014, Eur. J. Med. Chem. 86:211-218). Briefly, 3000 cells were incubated with various concentrations of compounds in triplicate in a 96-well plate for 72 h at 37° C. An MTT solution was added to each well and incubated for 3 h at 37° C. After 3 h, DMSO was added and the optical density was measured at 570 nm using a 96-well multiscanner (Dynex Technologies, MRX Revelation; Chantilly, Va., USA). Backgrounds were subtracted at 630 nm. IC50 values were calculated by non-linear regression analysis using Prism software.

[2] = test system: MDA-MB-231 (ER-negative) human breast cancer cell line; assay: MTT cell viability assay, MDA-MB-231 cells; conditions: for IC50: Homo sapiens; for cytotoxic activity: 72 h, versus Ospemifene and Tamoxifen; for anticancer activity in initial screening: 0.5-25 μM, 48 h (FIG. 3)
Protocol: as §2, §3

MMP-9 = assay: Western blot, MMP-9 expression in breast cancer cells; format: cell-based, human; conditions: MDA-MB-231 and MCF-7 cells, 24 h
Protocol: (§1) To determine the effect of novel triarylethylene derivatives on proteins involved in metastasis, and adhesion, whole-cell extracts were prepared by subjecting cells to lysis in RIPA buffer supplemented with protease and phosphatase inhibitor cocktails using previously described methods (Pandey et al., 2014, Exp. Hematol. 42:883-896). Lysates were spun at 15,000 rpm for 10 minutes to remove insoluble material. Supernatant were collected and kept at −80° C. Lysates were resolved by SDS-PAGE. After electrophoresis, the proteins were electro-transferred to PVDF membranes, blotted with the relevant antibodies, and detected by enhanced chemo-luminescence reagent.

c-Myc = assay: Western blot, c-Myc expression in breast cancer cells; format: cell-based, human; conditions: MDA-MB-231 and MCF-7 cells, 24 h
Protocol: as §1

caveolin = assay: Western blot, caveolin expression in breast cancer cells; format: cell-based, human; conditions: MDA-MB-231 and MCF-7 cells, 24 h
Protocol: as §1

[3] = test system: normal mouse embryonic fibroblast (MEF) cells; assay: MTT cell viability assay, normal MEF cells; conditions: 48 h
Protocol: as §2

[4] = MCF7, 72 h, read-out: MCF-7 IC50
[5] = MDA-MB-231, 72 h, read-out: MDA-MB-231 IC50
[6] = MCF7, 48 h, read-out: MCF-7 (ER positive) IC50
[7] = MCF7, 96 h, read-out: MCF-7 (ER positive) IC50
[8] = MDA-MB-231, 48 h, read-out: MDA-MB-231 (ER− negative) IC50
[9] = MDA-MB-231, 96 h, read-out: MDA-MB-231 (ER− negative) IC50

## CCOC(=O)C(=O)NCC/C(=C(\c1ccccc1)c1ccc(OC)cc1)c1ccccc1 [Compound 15, (Z)-Ethyl-2-(4-(4-methoxyphenyl)-3,4-diphenylbut-3-enylamino)-2-oxoacetate]
[1]; [4]
  IC50: > 50 µM
[2]; [5]
  IC50: > 50 µM

## COc1ccc(/C(=C(/CCNC(=O)N2CCCC2)c2ccccc2)c2ccccc2)cc1 [Compound 21, (Z)—N-(4-(4-Methoxyphenyl)-3,4-diphenylbut-3-enyl)pyrrolidine-1-carboxamide]
other
  melting point: 194.2 to 195.4 °C
[1]; [4]
  IC50: > 50 µM
[2]; [5]
  IC50: > 50 µM

## COc1ccc(/C(=C(/CCN)c2ccccc2)c2ccccc2)cc1 [Compound 13, (Z)-4-(4-Methoxyphenyl)-3,4-diphenylbut-3-en-1-amine]
MMP-9
  expression of MMP-9: inhibited the expression
c-Myc
  expression of c-Myc: inhibited the expression
caveolin
  expression of caveolin: inhibited the expression
other
  melting point: 129 to 131 °C
[1]; MTT, 0.5-100 μM, 48 h (FIG. 28B)
  effectiveness versus Ospemifene and Tamoxifen: more effective
[1]; MTT
  cytotoxic activity: remarkable activity
[2]; MTT, 0.5-100 μM, 48 h (FIG. 28A)
  effectiveness versus Ospemifene and Tamoxifen: more effective
[2]; MTT
  cytotoxic activity: remarkable activity

## (Z)-Ethyl-2-(4-(4-methoxyphenyl)-3,4-diphenylbut-3-enylamino)-2-oxoacetate [Compound 15]
MMP-9
  expression of MMP-9: modulated the expression
[1]; MTT
  cytotoxic activity: much more effective than the standards
[2]; MTT
  cytotoxic activity: much more effective than the standards

## COc1ccc(/C(=C(/CCNC(=O)NCc2ccccc2)c2ccccc2)c2ccccc2)cc1 [Compound 16, (Z)-1-Benzyl-3-(4-(4-methoxyphenyl)-3,4-diphenylbut-3-enyl) urea]
other
  melting point: 158 to 160 °C
[1]; [4]
  IC50: > 50 µM
[2]; [5]
  IC50: > 50 µM

## OCCOc1ccc(/C(=C(/CCCl)c2ccccc2)c2ccccc2)cc1 [Ospemifene, (Z)-2-{4-(4-chloro-1,2-diphenylbut-1-enyl)phenoxy}ethanol, reference compound]
[1]; [6]
  IC50: > 100 µM
[1]; [7]
  IC50: 55 µM
[1]; initial screening, 25 μM
  cell death: ~40%
[2]; [8]
  IC50: > 100 µM
[2]; [9]
  IC50: > 100 µM
[3]
  toxicity to normal MEF cells: non-toxic

## COc1ccc(/C(=C(/CCNC(=O)N2CCCCC2)c2ccccc2)c2ccccc2)cc1 [Compound 20, (Z)—N-(4-(4-Methoxyphenyl)-3,4-diphenylbut-3-enyl)piperidine-1-carboxamide]
other
  melting point: 197 to 198 °C
[1]; [4]
  IC50: > 50 µM
[2]; [5]
  IC50: > 50 µM

## COc1ccc(/C(=C(/CCNC(=O)C(=O)N2CCCC2)c2ccccc2)c2ccccc2)cc1 [Compound 24, (Z)—N-(4-(4-Methoxyphenyl)-3,4-diphenylbut-3-enyl)-2-oxo-2-(pyrrolidin-1-yl)acetamide]
other
  melting point: 151 to 152 °C
[1]; [4]
  IC50: > 50 µM
[2]; [5]
  IC50: 48.6 ± 14.5 µM

## [N-]=[N+]=NCC/C(=C(\c1ccccc1)c1ccc(OCCO)cc1)c1ccccc1 [Compound 4, (Z)-2-{4-(4-azido-1,2-diphenylbut-1-enyl)phenoxy}ethanol]
other
  melting point: 126 to 128 °C
[1]
  anticancer activity in initial screening: activity similar to Ospemifene
[1]; [6]
  IC50: > 100 µM
[1]; [7]
  IC50: > 100 µM
[2]; [8]
  IC50: > 100 µM
[2]; [9]
  IC50: > 100 µM

## COc1ccc(/C(=C(/CCNC(=O)NC2CCCCC2)c2ccccc2)c2ccccc2)cc1 [Compound 17, (Z)-1-Cyclohexyl-3-(4-(4-methoxyphenyl)-3,4-diphenylbut-3-enyl) urea]
other
  melting point: 168 to 170 °C
[1]; [4]
  IC50: 37.2 ± 13.7 µM
[2]; [5]
  IC50: > 50 µM

## CCN(CC)C(=O)NCC/C(=C(\c1ccccc1)c1ccc(OC)cc1)c1ccccc1 [Compound 19, (Z)-1,1-Diethyl-3-(4-(4-methoxyphenyl)-3,4-diphenylbut-3-enyl)urea]
other
  melting point: 159 to 160 °C
[1]; [4]
  IC50: > 50 µM
[2]; [5]
  IC50: 40.7 ± 12.2 µM

## COc1ccc(/C(=C(/CCNC(=O)C(=O)N2CCOCC2)c2ccccc2)c2ccccc2)cc1 [Compound 25, (Z)—N-(4-(4-Methoxyphenyl)-3,4-diphenylbut-3-enyl)-2-morpholino-2-oxoacetamide]
other
  melting point: 118.4 to 119.3 °C
[1]; [4]
  IC50: 43.4 ± 7.5 µM
[2]; [5]
  IC50: 20 ± 9.8 µM
[2]; MTT
  cytotoxic activity: good activity

## [N-]=[N+]=NCCOc1ccc(/C(=C(/CCN=[N+]=[N-])c2ccccc2)c2ccccc2)cc1 [Compound 5, (Z)-[4-azido-1-{4-(2-azidoethoxy)phenyl}but-1-ene-1,2-diyl]dibenzene]
[1]
  anticancer activity in initial screening: ineffective
[2]
  anticancer activity in initial screening: ineffective

## [N-]=[N+]=NCCOc1ccc(/C(=C(/CCCl)c2ccccc2)c2ccccc2)cc1 [Compound 3, (Z)-[1-{4-(2-azidoethoxy)phenyl}-4-chlorobut-1-ene-1,2-diyl]dibenzene]
other
  melting point: 88 to 90 °C
[1]
  anticancer activity in initial screening: inactive
[2]
  anticancer activity in initial screening: inactive

## COc1ccc(/C(=C(/CCNC(=O)N2CCOCC2)c2ccccc2)c2ccccc2)cc1 [Compound 18, (Z)—N-(4-(4-Methoxyphenyl)-3,4-diphenylbut-3-enyl)morpholine-4-carboxamide]
other
  melting point: 139 to 141 °C
[1]; [4]
  IC50: > 50 µM
[2]; [5]
  IC50: 42.8 ± 12.2 µM

## O=C(NCC/C(=C(\c1ccccc1)c1ccc(OCCO)cc1)c1ccccc1)Oc1ccccc1 [Compound 8, (Z)-Phenyl 4-{4-(2-hydroxyethoxy)phenyl}-3,4-diphenylbut-3-enylcarbamate]
other
  melting point: 121 to 123 °C
[1]
  anticancer activity in initial screening: more potent than Ospemifene
[1]; [6]
  IC50: 76 µM
[1]; [7]
  IC50: 50 µM
[2]
  anticancer activity in initial screening: more potent than Ospemifene
[2]; [8]
  IC50: > 100 µM
[2]; [9]
  IC50: 62.3 µM

## CS(=O)(=O)OCCOc1ccc(/C(=C(/CCCl)c2ccccc2)c2ccccc2)cc1 [Compound 2, (Z)-2-{4-(4-chloro-1,2-diphenylbut-1-enyl}phenoxy) ethyl methanesulfonate]
other
  melting point: 84 to 86 °C
[1]
  anticancer activity in initial screening: inactive
[2]
  anticancer activity in initial screening: inactive

## COc1ccc(/C(=C(/CCNC(=O)C(=O)NCc2ccccc2)c2ccccc2)c2ccccc2)cc1 [Compound 22, (Z)—N1-Benzyl-N2-(4-(4-methoxyphenyl)-3,4-diphenylbut-3-enyl)oxalamide]
MMP-9
  expression of MMP-9: inhibited the expression
c-Myc
  expression of c-Myc: inhibited the expression
caveolin
  expression of caveolin: did not inhibit the expression
other
  melting point: 169 to 172 °C
[1]; [4]
  IC50: > 50 µM
[2]; [5]
  IC50: 11.5 ± 3.8 µM
[2]; MTT
  cytotoxic activity: selectively cytotoxic

## COc1ccc(/C(=C(/CCNC(=O)C(=O)N2CCCCC2)c2ccccc2)c2ccccc2)cc1 [Compound 26, (Z)—N-(4-(4-Methoxyphenyl)-3,4-diphenylbut-3-enyl)-2-oxo-2-(piperidin-1-yl)acetamide]
other
  melting point: 125 to 127 °C
[1]; [4]
  IC50: > 50 µM
[2]; [5]
  IC50: > 50 µM

## COc1ccc(/C(=C(/CCN=[N+]=[N-])c2ccccc2)c2ccccc2)cc1 [Compound 12, (Z)-(4-Azido-1-(4-methoxyphenyl)but-1-ene-1,2-diyl)dibenzene]
other
  melting point: 126 to 128 °C

## COc1ccc(/C(=C(/CCCl)c2ccccc2)c2ccccc2)cc1 [Compound 11, (Z)-(4-Chloro-1-(4-methoxyphenyl)but-1-ene-1,2-diyl)dibenzene]
other
  melting point: 87 to 89 °C

## COc1ccc(/C(=C(/CCNC(=O)C(=O)NC2CCCCC2)c2ccccc2)c2ccccc2)cc1 [Compound 23, (Z)—N1-Cyclohexyl-N2-(4-(4-methoxyphenyl)-3,4-diphenylbut-3-enyl)oxalamide]
MMP-9
  expression of MMP-9: inhibited the expression
c-Myc
  expression of c-Myc: inhibited the expression
caveolin
  expression of caveolin: did not inhibit the expression
other
  melting point: 198 to 199 °C
[1]; [4]
  IC50: 12.1 ± 4.5 µM
[1]; MTT
  cytotoxic activity: remarkable activity
[2]; [5]
  IC50: 12.2 ± 5.3 µM
[2]; MTT
  cytotoxic activity: remarkable activity

## (Z)-Phenyl-4-(4-methoxyphenyl)-3,4-diphenylbut-3-enylcarbamate [Compound 14]
MMP-9
  expression of MMP-9: modulated the expression
[1]; MTT
  cytotoxic activity: much more effective than the standards
[2]; MTT
  cytotoxic activity: much more effective than the standards
